From patent US11453640B2, “Small molecules for disrupting the super elongation complex and inhibiting transcription elongation for cancer therapy” (NORTHWESTERN UNIVERSITY, priority 2018, dated 2022)

Tests used:
[1] = tested on: SEC subunits AFF1, AFF4, ELL2, CCNT1 and CDK9 mRNA; assay: RNA-seq of SEC subunit mRNA expression in HEK293T cells; type: cell-based, human; details: 20 μM, 12 hr
Source text: FIG. 8, related to FIG. 1. Peptidomimetic identification of disruptors of the AFF4-CCNT1 interaction within the Super Elongation Complex. (A) Schematic of AlphaLISA assay of the AFF4-CCNT1 interaction. Anti-GST AlphaLISA acceptor beads and AlphaScreen streptavidin donor beads (Perkin Elmer) were used to detect the interaction of GST-CCNT1 (AA1-300) and biotin-AFF4 (AA32-67). (B-C) Optimization of the AlphaLISA assay with various biotin-AFF4 peptide and GST-CCNT1 concentrations. No CCNT1 (B) and mutant AFF4 (C) were used as negative controls. Data are represented as Mean+/−SD. (D) Scheme for chemical synthesis of SEC inhibitors KL-1 and KL-2. Reagents and conditions: a. LDA, THF, −78° C., 15 min., then diethyl oxalate, −78° C. to room temperature. b. […] 293T cells were treated with 20 μM of KL-1 or KL-2 for 6 hr, and the protein levels of BRD2, BRD4, Pol II (RPB1), SPT5, MED26, MYC, HSP90 (load control) and Tubulin (load control) were measured by western blotting. […] HCT-116 cells were treated with 20 μM of KL-1 or KL-2 for 6 hr, and the protein levels of AFF1, AFF4, CCNT1, CDK9 and Tubulin (load control) were determined by western blotting. […] The log2CPM (counts per million) of the SEC subunits were calculated with HTseq. […]
RNA-seq Analysis. […] Exonic reads were assigned to specific genes from Ensembl release 75 using Bioconductor package GenomicRanges countOverlaps. […]

Pol II = Pol II ChIP-seq, promoter-proximal pausing in HEK293T cells; type: cell-based, human
Protocol: FIG. 2. Small molecule disruption of SEC increases promoter-proximal pausing. (A) SEC inhibitors increase Pol II occupancy near the transcription start sites (TSS) of the HSPA8 and SRSF4 genes. Pol II ChIP-seq was performed in HEK293T cells with 20 μM SEC inhibitors KL-1 and KL-2 for 6 hr. […] (B) Heatmap analysis of Pol II occupancy at SEC-occupied genes in cells treated with KL-1 and KL-2. SEC inhibition results in increased Pol II occupancy at promoter-proximal regions of genes occupied by SEC. Rows are sorted by Pol II occupancy in the DMSO condition and metaplots of Pol II occupancy are shown at the bottom. Corresponding AFF1 and AFF4 occupancy (rpm) in the vehicle-treated condition is shown. […] The pausing index is calculated based on the ratio of Pol II occupancy around the TSS to Pol II occupancy in the gene body. […]
Chromatin Immunoprecipitation Sequencing. […] ChIP-seq reads were aligned to the Drosophila genome (UCSC dm3) or human genome (UCSC hgl9). Alignments were processed with Bowtie version 1.1.2, allowing only uniquely mapping reads with up to two mismatches within the 50 bp read. The resulting reads were extended to 150 bp toward the interior of the sequenced fragment and normalized to total reads aligned (reads per million, r.p.m.). […] P-values were calculated with a two-sided Kolmogorov-Smirnov test. […]

COc1cccc(C(=O)CC(=O)C(=O)Nc2cc(Cl)ccc2C)c1 [KL-1, N-(5-chloro-2-methylphenyl)-4-oxo-4-(3-methoxyphenyl)-2-oxobutanamide]
mRNA levels of SEC components [1]: do not result in decreased mRNA levels of SEC components
promoter-proximal pausing (pausing index, ECDF) (Pol II): could increase promoter-proximal pausing
Pol II occupancy at promoter-proximal regions (Pol II; 20 μM, 6 hr, HSPA8 and SRSF4 loci): increased Pol II occupancy at the promoter-proximal regions
